Source: ChEMBL document CHEMBL3885861, “Open TG-GATES”

Organism: Rattus norvegicus
Assay: Open TG-GATES - Regimen: Daily Repeat
Format: toxicity, organism-based, Sprague-Dawley
Set-up: regimen Daily Repeat, gender Male, age 6 weeks
Conditions: in vivo, po, 400 mg/kg, route gavage, dose level High; for APTT / Bas / Eos / Fbg / Hb / Ht / Lym / MCH / MCHC / MCV / Mono / Neu / PT / Plat / RBC / Ret / WBC: tissue Blood
[1] = 72 h, tissue Kidney, time 3 day
[2] = 72 h, tissue Plasma, time 3 day

**Q.** What does the source list for `COc1ccc(Cc2nccc3cc(OC)c(OC)cc23)cc1OC` [PAPAVERINE]?
**A.** TERMINAL_BW (72 h, time 3 day): 239.4 g; APTT (72 h, time 3 day): 23.7 s; Bas (72 h, time 3 day): 0%; Eos (72 h, time 3 day): 1%; Fbg (72 h, time 3 day): 314.4 mg/dL; Hb (72 h, time 3 day): 13.5 g/dL; Ht (72 h, time 3 day): 39.4%; Lym (72 h, time 3 day): 73%; MCH (72 h, time 3 day): 20.9 pg; MCHC (72 h, time 3 day): 34.2%; MCV (72 h, time 3 day): 61.1 fL; Mono (72 h, time 3 day): 2%; Neu (72 h, time 3 day): 23%; PT (72 h, time 3 day): 15 s; Plat (72 h, time 3 day): 111.3 x10_4/uL; RBC (72 h, time 3 day): 644.8 x10_4/ul; Ret (72 h, time 3 day): 5%; WBC (72 h, time 3 day): 85.7 x10_2/uL; KIDNEY_L [1]: 1 g; KIDNEY_R [1]: 1.1 g; KIDNEY_TOTAL [1]: 2.1 g; LIVER (72 h, tissue Liver, time 3 day): 11.8 g; A/G [2]: 1.3; ALP [2]: 1542 IU/L; ALT [2]: 48.4 IU/L; AST [2]: 75.8 IU/L; BUN [2]: 16.6 mg/dL; CRE [2]: 0.1 mg/dL; Ca [2]: 10.9 mg/dL; Cl [2]: 107.4 meq/L; DBIL [2]: 0 mg/dL; GLC [2]: 179.8 mg/dL; IP [2]: 7.3 mg/dL; K [2]: 4.3 meq/L; LDH [2]: 160.2 IU/L; Na [2]: 143 meq/L; PL [2]: 148.4 mg/dL; RALB [2]: 3.1 g/dL; TBIL [2]: 0.008 mg/dL; TC [2]: 83 mg/dL; TG [2]: 78.4 mg/dL; TP [2]: 5.6 g/dL; gamma-GTP [2]: 1.4 IU/L; TERMINAL_BW ([…], time 7 day): 267.4 g; TERMINAL_BW ([…], time 14 day): 315.9 g; TERMINAL_BW ([…], time 28 day): 373.4 g; APTT ([…], time 7 day): 24.2 s; Bas ([…], time 7 day): 0%; Eos ([…], time 7 day): 0.4%; Fbg ([…], time 7 day): 337.4 mg/dL; Hb ([…], time 7 day): 13.6 g/dL; Ht ([…], time 7 day): 40.4%; Lym ([…], time 7 day): 74.4%; MCH ([…], time 7 day): 20.9 pg; MCHC ([…], time 7 day): 33.7%; MCV ([…], time 7 day): 61.9 fL; Mono ([…], time 7 day): 3%; Neu ([…], time 7 day): 20.8%; PT ([…], time 7 day): 15.2 s; Plat ([…], time 7 day): 126.4 x10_4/uL; RBC ([…], time 7 day): 652 x10_4/ul; Ret ([…], time 7 day): 5.8%; WBC ([…], time 7 day): 107.2 x10_2/uL; APTT ([…], time 14 day): 24.2 s; Bas ([…], time 14 day): 0%; Eos ([…], time 14 day): 1%; Fbg ([…], time 14 day): 321.6 mg/dL; Hb ([…], time 14 day): 14.1 g/dL; Ht ([…], time 14 day): 42.3%; Lym ([…], time 14 day): 75.4%; MCH ([…], time 14 day): 19.3 pg; MCHC ([…], time 14 day): 33.3%; MCV ([…], time 14 day): 58.2 fL; Mono ([…], time 14 day): 2.8%; Neu ([…], time 14 day): 19.2%; PT ([…], time 14 day): 15.4 s; Plat ([…], time 14 day): 128.5 x10_4/uL; RBC ([…], time 14 day): 728.6 x10_4/ul; Ret ([…], time 14 day): 4.3%; WBC ([…], time 14 day): 108.5 x10_2/uL; APTT ([…], time 28 day): 25.6 s; Bas ([…], time 28 day): 0%; Eos ([…], time 28 day): 1%; Fbg ([…], time 28 day): 328 mg/dL; Hb ([…], time 28 day): 14.4 g/dL; Ht ([…], time 28 day): 43.7%
